{"source": "patent CN114106008A", "about": "“一种从丹参中提取分离的二萜醌类化合物及其方法和应用” (Chengdu Push Bio Technology Co ltd, priority 2021, dated 2022)", "key": {"[1]": {"tested_on": "human liver cancer cells HEPG-2 [人肝癌细胞HEPG-2]", "experiment": "MTT proliferation inhibition, HEPG-2 cells, 72 h", "assay_type": "cell-based", "settings": "0.625-20 μg/ml"}, "[2]": {"tested_on": "human myelomonocytic leukemia cells MV-4-11 [人髓性单核细胞白血病细胞 MV-4-11]", "experiment": "MTT proliferation inhibition, MV4-11 cells, 72 h", "assay_type": "cell-based"}, "[3]": {"tested_on": "human cervical cancer cells HELA [人宫颈癌细胞HELA]", "experiment": "MTT proliferation inhibition, HELA cells, 72 h", "assay_type": "cell-based", "settings": "within the measured range (0.625-20 μg/ml)"}, "[4]": {"tested_on": "human large cell lung cancer cells H460 [人大细胞肺癌细胞 H460]", "experiment": "MTT proliferation inhibition, H460 cells, 72 h", "assay_type": "cell-based"}, "[5]": {"experiment": "Water solubility (statement in words)", "assay_type": "physicochemical"}, "[6]": {"tested_on": "human acute myeloid leukemia cells MOLM-13 [人急性髓系白血病细胞MOLM-13]", "experiment": "MTT proliferation inhibition, MOLM-13 cells, 72 h", "assay_type": "cell-based"}, "[7]": {"tested_on": "human diffuse large B lymphoma cells TMD-8 [人弥漫大B淋巴瘤细胞TMD-8]", "experiment": "MTT proliferation inhibition, TMD-8 cells, 72 h", "assay_type": "cell-based"}}}
{"substance": "呋喃并[2 ' ',3 ' ':5 ' ',6 ' ']萘并[1 ' ',2'':7 ',8 ']环十二烷[1 ',2':5,6]萘并[1,2-b]呋喃-10,11,21,22-四酮,6,7,8,9,19,20-六氢-1,12,17-三甲基-6-亚甲基-,(17E)- [四氢甘西鼠尾新酮A]", "values": [{"measurement": "in vitro inhibitory activity", "setting": "[1]", "result": "体外抑制活性较弱"}, {"measurement": "inhibition, concentration dependence", "setting": "[2]; Figure 3, 0.625-20 μg/ml", "result": "呈剂量依赖性"}, {"measurement": "IC50", "setting": "[2]; MTT", "result": 1.239, "unit": "µg/mL"}, {"measurement": "in vitro inhibitory activity", "setting": "[3]", "result": "在测量范围内未发现抑制活性"}, {"measurement": "inhibition, concentration dependence", "setting": "[4]; Figure 3, 0.625-20 μg/ml", "result": "呈剂量依赖性"}, {"measurement": "IC50", "setting": "[4]; MTT", "result": 1.131, "unit": "µg/mL"}, {"measurement": "water solubility", "setting": "[5]", "result": "水溶性较差"}, {"measurement": "inhibition, concentration dependence", "setting": "[6]; Figure 3, 0.625-20 μg/ml", "result": "呈剂量依赖性"}, {"measurement": "IC50", "setting": "[6]; MTT", "result": 1.9, "unit": "µg/mL"}, {"measurement": "inhibition, concentration dependence", "setting": "[7]; Figure 3, 0.625-20 μg/ml", "result": "呈剂量依赖性"}, {"measurement": "IC50", "setting": "[7]; MTT", "result": 1.388, "unit": "µg/mL"}]}
